{
  "source": "paper PMC8657848",
  "about": "“Developmental Toxicity and Biotransformation of Two Anti-Epileptics in Zebrafish Embryos and Early Larvae” (International Journal of Molecular Sciences, 2021)",
  "key": {"[1]": {"assay": "Quantification of compound in stock and culture medium relative to nominal concentration (LC-MS)", "type": "physicochemical", "settings": "for Percentage of quantified compound concentration relatively to the nominal concentration: CBZ–E-CBZ", "procedure": "The control and test mediums were also kept in the same incubator until the last time point of the experiment. The embryo media were renewed every 48 h, to avoid medium acidification and oxygen deprivation. At each medium change and at the last time point of the experiment (Figure 9), the media exposed to the embryos were pooled and kept at −80 °C for further use (n = 3). Moreover, samples from the stock solutions kept at 28.5 °C ± 0.3 °C were also taken at 0 and 120 hpf (n = 3), whereas samples were only taken at 96 hpf for the metabolites medium (E-CBZ and HPPH)."}, "[2]": {"test_system": "zebrafish embryos and larvae", "assay": "Morphological evaluation of zebrafish embryos/larvae exposed from 5¼ to 120 hpf", "settings": "in vivo", "procedure": "Each experiment was performed in two biological replicates (n = 2, 20 embryos/replicate) and consisted of a medium control group (EMS), solvent control group(s) (EMS + 0.5% DMSO and/or EMS + 1% DMSO) and four dose groups. […] Embryos were reared until they reached the desired developmental stage, under the same environmental conditions as the adults (28.5 °C ± 0.3 °C with a 14/10 h light/dark cycle) in the incubator (TIN-IN35, Phoenix instrument, Garbsen, Germany).\nFor the metabolites, E-CBZ (≥98% purity, CAS number: 36507-30-9, Supelco, Merck, Darmstadt, Germany) and HPPH (98% purity, CAS number: 2784-27-2, Sigma-Aldrich®, Merck, Darmstadt, Germany), we only selected one high concentration, 250 µM (see Supplementary Table S1). […] A higher percentage of DMSO was used for E-CBZ for the optimum dissolution of E-CBZ in EMS. Immediately after the selection (see Section 4.1), twenty embryos were randomly distributed in each control and test group. Embryos were exposed at the latest at 5 hpf in a final volume of 300 µL medium at a density of a fish per well.\nFor each biological replicate (n = 2), zebrafish embryos were morphologically investigated at 5¼, 10, 24, 48, 72, 96 and 120 hpf (Figure 9) using an Olympus CKX41 microscope with an Olympus U-TV0.5XC-3 lighting and an Olympys 4x/0.16 Uplan APO microscope objective (Shinjuku, Tokyo, Japon) to follow the developmental stages described by Kimmel et al.. The 5¼- and 10-hpf time points served as control steps to identify unfertilized or coagulated eggs that were included unwittingly to the experiment and referenced as coagulated in the 24-hpf morphological sheet (see Supplementary Figure S3). A series of morphological parameters were explored, adapted from Nagel et al., depending on the different time points of interest and described previously by our group (see Supplementary Figure S3). All parameters were scored 0 if normal and 1 if malformed. This binary scale was used to facilitate the scoring and no gradation of the severity of the endpoints was evaluated in this study."}, "[3]": {"design": "method as in PMID 20832863", "settings": "after 70.5 h of exposure (time point 72 hpf); cited from earlier work"}, "[4]": {"test_system": "zebrafish embryos/larvae", "assay": "Quantification of metabolites E-CBZ and HPPH in pooled culture medium exposed to zebrafish embryos/larvae", "type": "in vivo, Danio rerio", "settings": "250 µM CBZ", "procedure": "The control and test mediums were also kept in the same incubator until the last time point of the experiment. The embryo media were renewed every 48 h, to avoid medium acidification and oxygen deprivation. At each medium change and at the last time point of the experiment (Figure 9), the media exposed to the embryos were pooled and kept at −80 °C for further use (n = 3)."}, "[5]": {"assay": "Microsomal incubation with CBZ and PHE, rat liver microsomes", "type": "in vitro ADME", "settings": "rat adult liver microsomes; data not shown", "procedure": "Moreover, positive and negative controls were included: pooled human liver microsomes (Gibco™, HMMCPL–PL050B, Thermo Fisher Scientific) and Insect Cell Control Supersomes™ (lot number: PL050 C-B, 456201, Corning Incorporated, Corning, NY, USA), respectively. Based on Oziolor et al., microsomal reactions were initiated after adding the substrate solution at a concentration of 100 µM (see Supplementary Table S1) in a mixture of 100 mM K3PO4 buffer (Corning® Gentest™, NY, USA) of pH 7.4, 5% and 1% of NADPH regenerating system reagents A and B, respectively (Corning, Woburn, MA, USA) and 200 µg/mL of microsomal protein, for a total volume of 500 µL. The reactions were performed at 28.5 ± 0.3 °C until the time point of interest. […]\nFor the quantification of the metabolites E-CBZ and HPPH, the samples processed were the microsomal incubation reactions (see Section 4.3.2), the zebrafish culture and stock medium (4.2.1) and the zebrafish embryos/larvae extracts (see Section 4.2.3). […] To quantify the concentrations of E-CBZ and HPPH in these samples, standard curves (in duplicate) of 10 concentrations for E-CBZ (0.5–400 ng/mL; see Supplementary Table S1) and HPPH (2–1600 ng/mL; see Supplementary Table S1) were prepared, as were quality controls. […]"}, "[6]": {"assay": "Microsomal incubation with CBZ and PHE, supersomes (negative control)", "type": "in vitro ADME", "settings": "data not shown", "procedure": "Moreover, positive and negative controls were included: pooled human liver microsomes (Gibco™, HMMCPL–PL050B, Thermo Fisher Scientific) and Insect Cell Control Supersomes™ (lot number: PL050 C-B, 456201, Corning Incorporated, Corning, NY, USA), respectively. Based on Oziolor et al., microsomal reactions were initiated after adding the substrate solution at a concentration of 100 µM (see Supplementary Table S1) in a mixture of 100 mM K3PO4 buffer (Corning® Gentest™, NY, USA) of pH 7.4, 5% and 1% of NADPH regenerating system reagents A and B, respectively (Corning, Woburn, MA, USA) and 200 µg/mL of microsomal protein, for a total volume of 500 µL. The reactions were performed at 28.5 ± 0.3 °C until the time point of interest. […] The reactions were stopped at two time points (5 and 240 min) by sampling 40 µL, in duplicate, of the main microsomal reaction and mixed with 120 µL cold (4 °C) acetonitrile (ACN) (Merck, Darmstadt, Germany) already containing the internal standard (IS), LAMO. The samples were then centrifuged for 10 min at 10,000× g to precipitate the proteins, which were denatured in cold ACN."}, "[7]": {"settings": "zebrafish (Danio rerio), 120 hpf, 85 µM"}, "[8]": {"settings": "zebrafish (Danio rerio), 120 hpf, 250 µM"}, "[9]": {"settings": "zebrafish (Danio rerio), 120 hpf, 31.25 µM"}},
  "data": [
    {"smiles": "NC(=O)N1c2ccccc2C=Cc2ccccc21", "note": "[CBZ, carbamazepine]", "values": [
      {"measurement": "Percentage of quantified compound concentration relatively to the nominal concentration", "setting": "[1]; Culture medium exposed to embryos/larvae, nominal 31.25 µM, 48 hpf", "result": "95.4 ± 16.2", "unit": "%"},
      {"measurement": "Percentage of quantified compound concentration relatively to the nominal concentration", "setting": "[1]; Culture medium, nominal 31.25 µM, 96 hpf", "result": "101.2 ± 21.7", "unit": "%"},
      {"measurement": "Percentage of quantified compound concentration relatively to the nominal concentration", "setting": "[1]; Culture medium, nominal 31.25 µM, 120 hpf", "result": "109.6 ± 5.4", "unit": "%"},
      {"measurement": "Percentage of quantified compound concentration relatively to the nominal concentration", "setting": "[1]; Culture medium, nominal 85 µM, 48 hpf", "result": "110.0 ± 4.8", "unit": "%"},
      {"measurement": "Percentage of quantified compound concentration relatively to the nominal concentration", "setting": "[1]; Culture medium, nominal 85 µM, 96 hpf", "result": "116.8 ± 4.7", "unit": "%"},
      {"measurement": "Percentage of quantified compound concentration relatively to the nominal concentration", "setting": "[1]; Culture medium, nominal 85 µM, 120 hpf", "result": "113.9 ± 4.5", "unit": "%"},
      {"measurement": "Percentage of quantified compound concentration relatively to the nominal concentration", "setting": "[1]; Culture medium, nominal 250 µM, 48 hpf", "result": "113.4 ± 14.1", "unit": "%"},
      {"measurement": "Percentage of quantified compound concentration relatively to the nominal concentration", "setting": "[1]; Culture medium, nominal 250 µM, 96 hpf", "result": "114.2 ± 2.6", "unit": "%"},
      {"measurement": "Percentage of quantified compound concentration relatively to the nominal concentration", "setting": "[1]; Culture medium, nominal 250 µM, 120 hpf", "result": "111.5 ± 2.6", "unit": "%"},
      {"measurement": "Percentage of quantified compound concentration relatively to the nominal concentration", "setting": "[1]; Stock, nominal 31.25 µM, 0 hpf, average of three replicates", "result": "95.6 ± 2.0", "unit": "%"},
      {"measurement": "Percentage of quantified compound concentration relatively to the nominal concentration", "setting": "[1]; Stock, nominal 31.25 µM, 120 hpf", "result": "101.6 ± 7.7", "unit": "%"},
      {"measurement": "Percentage of quantified compound concentration relatively to the nominal concentration", "setting": "[1]; Stock, nominal 85 µM, 0 hpf", "result": "81.7 ± 18.7", "unit": "%"},
      {"measurement": "Percentage of quantified compound concentration relatively to the nominal concentration", "setting": "[1]; Stock, nominal 85 µM, 120 hpf", "result": "90.4 ± 6.6", "unit": "%"},
      {"measurement": "Percentage of quantified compound concentration relatively to the nominal concentration", "setting": "[1]; Stock, nominal 250 µM, 0 hpf", "result": "92.1 ± 5.3", "unit": "%"},
      {"measurement": "Percentage of quantified compound concentration relatively to the nominal concentration", "setting": "[1]; Stock, nominal 250 µM, 120 hpf", "result": "98.4 ± 4.6", "unit": "%"},
      {"measurement": "Teratogenicity in zebrafish (conclusion from morphological and analytical assessment)", "setting": "[2]", "result": "teratogens"},
      {"measurement": "Coagulation", "setting": "[2]; [7]", "result": "2/20"},
      {"measurement": "Deviation Tail Curve", "setting": "[2]; [7]", "result": "1/18"},
      {"measurement": "Malformation Head Deviation Eye", "setting": "[2]; [7]", "result": "1/18"},
      {"measurement": "Malformation Head Deviation Mouth", "setting": "[2]; [7]", "result": "2/18"},
      {"measurement": "Malformation Head Deviation Shape Head", "setting": "[2]; [7]", "result": "3/18"},
      {"measurement": "Deviation Tail Curve", "setting": "[2]; [8]", "result": "2/20"},
      {"measurement": "Malformation Head Deviation Mouth", "setting": "[2]; [8]", "result": "3/20"},
      {"measurement": "Oedema Yolk", "setting": "[2]; [8]", "result": "3/20"},
      {"measurement": "Average quantified concentration higher than the nominal concentration", "setting": "[3]", "result": 22.3, "unit": "%"},
      {"measurement": "Increase of E-CBZ in culture medium between 96 and 120 hpf", "setting": "[4]", "result": "six-fold"},
      {"measurement": "Decrease of parent compound after 240 min (pilot investigation)", "setting": "[5]", "result": "no changes"}
    ]},
    {"smiles": "O=C1NC(=O)C(c2ccccc2)(c2ccccc2)N1", "note": "[PHE, phenytoin]", "values": [
      {"measurement": "Quantified concentration in culture medium lower than the nominal concentration", "setting": "[1]; 31.25 µM, stable over time", "result": 20, "unit": "%"},
      {"measurement": "Quantified concentration lower than the nominal concentration", "setting": "[1]; 85 µM, culture medium at 96 and 120 hpf and stock medium at 120 hpf", "result": "around 35%"},
      {"measurement": "Quantified concentration lower than the expected concentration", "setting": "[1]; 85 µM, stock medium at 0 hpf and culture medium at 48 hpf", "result": "around 20%"},
      {"measurement": "Quantified concentration as percentage of the nominal concentration", "setting": "[1]; 250 µM, stock and culture medium, all time points", "result": "≤ 45", "unit": "%"},
      {"measurement": "Dissolution / precipitation in EMS", "setting": "[1]; visually observed in the stock medium for 85 and 250 µM", "result": "did not dissolve properly in the EMS and/or precipitated in EMS"},
      {"measurement": "Teratogenicity in zebrafish (conclusion from morphological and analytical assessment)", "setting": "[2]", "result": "teratogens"},
      {"measurement": "Deviation Tail Curve", "setting": "[2]; [9]", "result": "1/20"},
      {"measurement": "Malformation Head Deviation Eye", "setting": "[2]; [9]", "result": "2/20"},
      {"measurement": "Deviation Pigmentation", "setting": "[2]; [7]", "result": "2/20"},
      {"measurement": "Deviation Tail Elbow", "setting": "[2]; [7]", "result": "1/20"},
      {"measurement": "Deviation Tail Tissue Deviation", "setting": "[2]; [7]", "result": "2/20"},
      {"measurement": "Deviation Tail Elbow", "setting": "[2]; [8]", "result": "2/20"},
      {"measurement": "Deviation Tail Tissue Deviation", "setting": "[2]; [8]", "result": "1/20"},
      {"measurement": "No Hatching", "setting": "[2]; [8]", "result": "1/20"},
      {"measurement": "Oedema Head", "setting": "[2]; [8]", "result": "1/20"},
      {"measurement": "Oedema Pericardium", "setting": "[2]; [8]", "result": "1/20"},
      {"measurement": "Oedema Yolk", "setting": "[2]; [8]", "result": "1/20"},
      {"measurement": "Decrease of parent compound after 240 min (pilot investigation)", "setting": "[5]", "result": "very slight decrease"},
      {"measurement": "Decrease of parent compound after 240 min (pilot investigation)", "setting": "[6]", "result": "No decrease"}
    ]}
  ]
}
